Biological target: T1, CDK7/cyclin H/MNAT1 (Homo sapiens, UniProt P50613)
T1 construct: purchased Thermo Fisher Scientific (Life Technologies) SelectScreen
Test: SelectScreen Adapta
Type: biochemical
Outline: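 SelectScreen broad panel; activity (Z'LYTE, Adapta) plus binding formats. ATP: Km app for CSF1R Z'LYTE; 10 for CAMK1 Adapta. Readout = % per kinase.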

T1 sequence (P50613 whole entry): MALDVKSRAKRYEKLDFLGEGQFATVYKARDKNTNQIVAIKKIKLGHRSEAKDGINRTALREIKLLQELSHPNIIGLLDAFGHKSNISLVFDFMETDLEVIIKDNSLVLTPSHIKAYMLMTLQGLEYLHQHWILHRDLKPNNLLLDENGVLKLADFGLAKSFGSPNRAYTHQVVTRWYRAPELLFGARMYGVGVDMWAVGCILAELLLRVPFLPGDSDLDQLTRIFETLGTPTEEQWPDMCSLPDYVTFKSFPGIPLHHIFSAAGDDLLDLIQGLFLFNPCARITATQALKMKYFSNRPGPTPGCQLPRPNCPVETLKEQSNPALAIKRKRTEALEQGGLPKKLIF
T1 sequence (P51946 whole entry partner): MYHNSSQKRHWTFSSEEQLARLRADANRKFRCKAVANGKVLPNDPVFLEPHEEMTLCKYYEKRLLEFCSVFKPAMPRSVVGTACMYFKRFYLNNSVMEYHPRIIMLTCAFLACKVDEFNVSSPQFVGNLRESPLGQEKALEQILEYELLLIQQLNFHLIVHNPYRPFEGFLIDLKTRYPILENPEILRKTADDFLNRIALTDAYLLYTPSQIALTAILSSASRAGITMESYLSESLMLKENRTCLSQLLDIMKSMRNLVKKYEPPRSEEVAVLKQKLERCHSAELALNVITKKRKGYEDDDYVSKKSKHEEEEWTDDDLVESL
T1 sequence (P51948 whole entry partner): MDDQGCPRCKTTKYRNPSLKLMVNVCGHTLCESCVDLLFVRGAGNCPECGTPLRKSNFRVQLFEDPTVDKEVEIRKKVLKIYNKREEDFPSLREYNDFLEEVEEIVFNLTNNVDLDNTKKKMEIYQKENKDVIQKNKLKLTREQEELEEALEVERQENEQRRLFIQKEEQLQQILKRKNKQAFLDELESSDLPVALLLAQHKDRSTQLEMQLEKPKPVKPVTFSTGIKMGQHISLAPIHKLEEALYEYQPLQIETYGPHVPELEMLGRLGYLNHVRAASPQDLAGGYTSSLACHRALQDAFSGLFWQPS

CN(C(=O)CN1CCOCC1)c1ccc2sc3c(-c4cccc5c(=O)cc(N6CC7CCC(C6)O7)oc45)cccc3c2c1 [NU5455]
inhibition at 1 µM: 5.3%
